Earlier results, collected in paper PMC10544575, “Inhibitory mechanism of vortioxetine on CYP450 enzymes in human and rat liver microsomes” (Frontiers in Pharmacology, 2023).

What was measured:
Conditions in all cases: in vitro; ref Wójcikowski et al., 2020; cited from earlier work
CYP3A4 = CYP3A4 (Homo sapiens, UniProt P08684); design: 0.20 mg/mL HLMs or 0.20 mg/mL RLMs; from tissue; host or cells: human liver microsomes; method as in Wójcikowski et al., 2020
CYP2D6 = CYP2D6 (Homo sapiens, UniProt P10635); design: 0.20 mg/mL HLMs or 0.20 mg/mL RLMs; from tissue; host or cells: human liver microsomes; method as in Wójcikowski et al., 2020
CYP1A2 = tested on: CYP1A2; design: method as in Wójcikowski et al., 2020

Sequence of CYP2D6 (P10635 whole entry): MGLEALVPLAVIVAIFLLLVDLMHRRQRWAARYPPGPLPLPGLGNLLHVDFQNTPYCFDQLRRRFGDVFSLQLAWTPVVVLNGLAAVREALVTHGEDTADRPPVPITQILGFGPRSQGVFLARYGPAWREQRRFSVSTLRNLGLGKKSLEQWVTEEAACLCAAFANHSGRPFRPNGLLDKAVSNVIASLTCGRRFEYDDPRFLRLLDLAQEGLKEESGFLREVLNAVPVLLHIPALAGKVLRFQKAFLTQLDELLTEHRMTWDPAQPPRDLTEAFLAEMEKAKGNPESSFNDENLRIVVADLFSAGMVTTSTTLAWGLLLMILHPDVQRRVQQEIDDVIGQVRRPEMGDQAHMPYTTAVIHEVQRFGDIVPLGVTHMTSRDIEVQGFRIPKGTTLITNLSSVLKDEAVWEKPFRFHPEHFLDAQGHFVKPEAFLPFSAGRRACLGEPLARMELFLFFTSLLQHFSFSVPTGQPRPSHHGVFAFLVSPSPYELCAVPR
Sequence of CYP3A4 (P08684 whole entry): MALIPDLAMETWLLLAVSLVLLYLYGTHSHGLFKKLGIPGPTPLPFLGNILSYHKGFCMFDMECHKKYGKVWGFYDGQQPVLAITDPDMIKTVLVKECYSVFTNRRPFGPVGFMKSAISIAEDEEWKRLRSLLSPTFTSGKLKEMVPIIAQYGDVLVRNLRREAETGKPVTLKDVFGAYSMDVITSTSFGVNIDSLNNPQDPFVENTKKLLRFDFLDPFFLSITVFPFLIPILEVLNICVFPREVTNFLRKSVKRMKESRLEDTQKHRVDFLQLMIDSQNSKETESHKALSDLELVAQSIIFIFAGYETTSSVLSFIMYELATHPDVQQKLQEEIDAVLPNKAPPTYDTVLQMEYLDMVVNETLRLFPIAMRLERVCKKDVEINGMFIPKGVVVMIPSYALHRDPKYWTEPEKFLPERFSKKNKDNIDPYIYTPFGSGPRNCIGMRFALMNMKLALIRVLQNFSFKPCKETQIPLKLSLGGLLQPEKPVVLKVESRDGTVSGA

CN1CC2c3ccccc3Oc3ccc(Cl)cc3C2C1 (stereo not drawn) [asenapine]
significantly inhibited: inhibition of CYP3A4 (CYP3A4) | inhibition of CYP2D6 (CYP2D6) | inhibition of CYP1A2 (CYP1A2)
